Test results taken from ChEMBL document CHEMBL1909046, “DrugMatrix in vitro pharmacology data”.

Tests used:
[1] = biological target: T1, 5-hydroxytryptamine receptor 2C (Homo sapiens, UniProt P28335); test: DRUGMATRIX: Serotonin (5-Hydroxytryptamine) 5-HT2C radioligand binding (ligand: [3H] Mesulergine); format: cell membranes, CHO-K1, Membrane; settings: Not Active = under 50% inhibition at 10 µM
T1 sequence (P28335 whole entry): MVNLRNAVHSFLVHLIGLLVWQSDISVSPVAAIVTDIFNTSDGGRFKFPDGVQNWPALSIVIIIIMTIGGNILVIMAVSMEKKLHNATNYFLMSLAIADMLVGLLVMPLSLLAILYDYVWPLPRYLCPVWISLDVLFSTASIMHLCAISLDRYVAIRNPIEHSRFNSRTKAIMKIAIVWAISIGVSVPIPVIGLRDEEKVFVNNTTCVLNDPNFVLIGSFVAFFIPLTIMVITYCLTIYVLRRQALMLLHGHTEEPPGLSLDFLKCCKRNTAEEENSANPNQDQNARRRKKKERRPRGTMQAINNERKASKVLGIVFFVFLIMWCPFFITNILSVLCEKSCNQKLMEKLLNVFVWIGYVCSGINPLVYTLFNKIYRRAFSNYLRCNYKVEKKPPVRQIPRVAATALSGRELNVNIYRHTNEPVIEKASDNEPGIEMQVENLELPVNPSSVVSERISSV

D(3) dopamine receptor = D(3) dopamine receptor (Homo sapiens, UniProt P35462); test: DRUGMATRIX: Dopamine D3 radioligand binding (ligand: [3H] Spiperone); format: cell membranes, CHO, Membrane
Mu-type opioid receptor = Mu-type opioid receptor (Homo sapiens, UniProt P35372); test: DRUGMATRIX: Opiate mu (OP3, MOP) radioligand binding (ligand: [3H] Diprenorphine); format: cell membranes, CHO-K1, Membrane; settings: cho-k1; Not Active = under 50% inhibition at 10 µM
Cytochrome P450 2A6 = biological target: T2, Cytochrome P450 2A6 (Homo sapiens, UniProt P11509); settings: bti-tn-5b1-4; note: in other assays of this panel Not Active means under 50% inhibition at 10 µM
T2 sequence (P11509 whole entry): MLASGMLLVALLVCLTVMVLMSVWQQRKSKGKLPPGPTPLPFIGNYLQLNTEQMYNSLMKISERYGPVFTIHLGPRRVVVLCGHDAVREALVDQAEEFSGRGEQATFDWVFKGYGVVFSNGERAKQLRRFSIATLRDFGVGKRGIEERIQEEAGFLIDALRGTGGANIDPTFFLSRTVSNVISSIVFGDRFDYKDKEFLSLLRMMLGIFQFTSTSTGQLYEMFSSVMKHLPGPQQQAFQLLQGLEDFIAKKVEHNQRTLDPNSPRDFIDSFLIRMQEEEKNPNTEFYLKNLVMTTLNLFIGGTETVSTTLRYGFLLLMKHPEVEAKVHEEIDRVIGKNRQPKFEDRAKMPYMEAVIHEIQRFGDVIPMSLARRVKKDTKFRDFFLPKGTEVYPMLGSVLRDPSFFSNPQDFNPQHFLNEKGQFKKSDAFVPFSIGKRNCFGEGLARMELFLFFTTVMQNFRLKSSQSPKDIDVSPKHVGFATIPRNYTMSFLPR

Estrogen receptor = biological target: T3, Estrogen receptor (Homo sapiens, UniProt P03372); settings: sf9; note: in other assays of this panel Not Active means under 50% inhibition at 10 µM
T3 sequence (P03372 whole entry): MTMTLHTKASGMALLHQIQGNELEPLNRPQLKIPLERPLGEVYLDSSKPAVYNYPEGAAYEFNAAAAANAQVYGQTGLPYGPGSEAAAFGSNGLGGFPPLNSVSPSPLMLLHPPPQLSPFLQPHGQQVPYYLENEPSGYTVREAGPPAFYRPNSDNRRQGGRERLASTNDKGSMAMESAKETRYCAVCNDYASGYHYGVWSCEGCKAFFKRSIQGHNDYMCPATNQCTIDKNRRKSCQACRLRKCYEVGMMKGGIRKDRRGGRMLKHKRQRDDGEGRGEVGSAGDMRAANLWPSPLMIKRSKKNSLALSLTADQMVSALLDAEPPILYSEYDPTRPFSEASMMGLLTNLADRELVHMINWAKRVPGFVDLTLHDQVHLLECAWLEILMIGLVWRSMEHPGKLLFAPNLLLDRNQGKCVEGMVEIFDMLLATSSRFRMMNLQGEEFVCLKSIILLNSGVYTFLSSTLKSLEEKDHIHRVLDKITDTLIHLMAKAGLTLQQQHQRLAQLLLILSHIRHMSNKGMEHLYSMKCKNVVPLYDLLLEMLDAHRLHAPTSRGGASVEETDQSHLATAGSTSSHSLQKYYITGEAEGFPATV

Cytochrome P450 3A4 = Cytochrome P450 3A4 (Homo sapiens, UniProt P08684); settings: bti-tn-5b1-4; note: in other assays of this panel Not Active means under 50% inhibition at 10 µM
Chain of Cytochrome P450 3A4 (P08684 whole entry): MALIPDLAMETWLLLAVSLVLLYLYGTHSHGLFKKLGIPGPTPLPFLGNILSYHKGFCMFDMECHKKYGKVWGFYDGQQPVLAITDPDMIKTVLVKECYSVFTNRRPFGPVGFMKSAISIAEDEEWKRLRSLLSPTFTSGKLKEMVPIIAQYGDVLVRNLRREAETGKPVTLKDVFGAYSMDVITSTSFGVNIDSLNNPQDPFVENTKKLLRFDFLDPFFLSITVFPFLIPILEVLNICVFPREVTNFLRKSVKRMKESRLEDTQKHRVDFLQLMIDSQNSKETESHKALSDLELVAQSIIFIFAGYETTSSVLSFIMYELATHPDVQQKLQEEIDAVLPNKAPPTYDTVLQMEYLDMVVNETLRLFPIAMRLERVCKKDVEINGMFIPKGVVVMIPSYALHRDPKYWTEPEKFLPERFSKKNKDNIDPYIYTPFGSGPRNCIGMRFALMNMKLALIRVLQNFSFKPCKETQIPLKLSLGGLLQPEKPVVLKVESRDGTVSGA

Chain of D(3) dopamine receptor (P35462 whole entry): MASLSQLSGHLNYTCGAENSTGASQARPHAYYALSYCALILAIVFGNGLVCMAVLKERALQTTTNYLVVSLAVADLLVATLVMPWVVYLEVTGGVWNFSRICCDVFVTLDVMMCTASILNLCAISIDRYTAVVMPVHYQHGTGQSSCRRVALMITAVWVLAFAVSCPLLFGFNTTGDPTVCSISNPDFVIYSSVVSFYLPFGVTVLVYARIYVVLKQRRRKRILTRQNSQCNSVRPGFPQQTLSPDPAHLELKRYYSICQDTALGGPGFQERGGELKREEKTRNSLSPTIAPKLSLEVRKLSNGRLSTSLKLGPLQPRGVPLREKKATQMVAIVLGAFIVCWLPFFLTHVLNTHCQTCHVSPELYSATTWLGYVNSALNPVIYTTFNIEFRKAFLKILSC
Chain of Mu-type opioid receptor (P35372 whole entry): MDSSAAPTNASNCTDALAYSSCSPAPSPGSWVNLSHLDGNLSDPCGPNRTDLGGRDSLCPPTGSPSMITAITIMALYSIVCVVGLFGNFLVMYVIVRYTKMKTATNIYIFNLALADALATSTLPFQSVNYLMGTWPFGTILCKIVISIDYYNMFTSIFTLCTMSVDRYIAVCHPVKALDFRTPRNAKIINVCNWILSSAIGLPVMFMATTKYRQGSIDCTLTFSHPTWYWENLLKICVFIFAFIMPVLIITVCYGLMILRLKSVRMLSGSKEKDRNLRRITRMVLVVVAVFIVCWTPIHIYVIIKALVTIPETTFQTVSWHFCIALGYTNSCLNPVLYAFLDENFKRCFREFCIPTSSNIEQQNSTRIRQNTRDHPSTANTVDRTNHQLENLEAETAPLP

Compound	IC50 ([1]; cho-k1)	IC50 (D(3) dopamine receptor; cho)	IC50 (Mu-type opioid receptor)	IC50 (Cytochrome P450 2A6)	Ki (Cytochrome P450 2A6)	IC50 (Estrogen receptor)	IC50 (Cytochrome P450 3A4)	Ki (Cytochrome P450 3A4)	IC50 ([1]; read-out: IC50) [nM]	Ki ([1]; read-out: Ki) [nM]	Ki ([1]; cho-k1)	Ki (D(3) dopamine receptor; cho)	Ki (Estrogen receptor)	IC50 (D(3) dopamine receptor; read-out: IC50) [nM]	Ki (D(3) dopamine receptor; read-out: Ki) [nM]
CC[C@@]1(O)C(=O)OCc2c1cc1n(c2=O)Cc2cc3c(CN(C)C)c(O)ccc3nc2-1 [TOPOTECAN]	Not Active	Not Active	Not Active	Not Active	Not Active	Not Active									
C#C[C@]1(O)CC[C@H]2[C@@H]3[C@H](C)CC4=C(CCC(=O)C4)[C@H]3CC[C@@]21C [TIBOLONE]	Not Active	Not Active	Not Active	Not Active	Not Active		Not Active	Not Active							
Oc1ccc(/C=C/c2cc(O)cc(O)c2)cc1 [RESVERATROL]	Not Active	Not Active		Not Active	Not Active	Not Active									
CCOc1cc(N)c(Cl)cc1C(=O)NCC1CN(Cc2ccc(F)cc2)CCO1 (stereo not given) [MOSAPRIDE]		Not Active	Not Active	Not Active	Not Active	Not Active			397	208					
C[C@]12CCC(=O)C[C@@H]1CC[C@@H]1[C@@H]2CC[C@]2(C)[C@@H](O)CC[C@@H]12 [STANOLONE]	Not Active	Not Active	Not Active	Not Active	Not Active		Not Active	Not Active							
O=C(O)c1cc(/N=N/c2ccc(S(=O)(=O)Nc3ccccn3)cc2)ccc1O [SULFASALAZINE]	Not Active	Not Active	Not Active	Not Active	Not Active		Not Active	Not Active							
O=[As][O-].[Na+] [SODIUM ARSENITE]	Not Active	Not Active		Not Active	Not Active	Not Active	Not Active	Not Active							
CCN(CC)N=O [N-NITROSODIETHYLAMINE]	Not Active	Not Active		Not Active	Not Active		Not Active	Not Active							
Nc1nc(N)c2nc(-c3ccccc3)c(N)nc2n1	Not Active	Not Active	Not Active	Not Active	Not Active	Not Active									
Cc1cc2c(s1)Nc1ccccc1N=C2N1CCN(C)CC1 [OLANZAPINE]			Not Active	Not Active	Not Active	Not Active	Not Active	Not Active							
CC#C[C@]1(O)CC[C@H]2[C@@H]3CCC4=CC(=O)CCC4=C3[C@@H](c3ccc(N(C)C)cc3)C[C@@]21C [MIFEPRISTONE]	Not Active	Not Active		Not Active	Not Active										
CS(=O)(=O)c1ccc(C2=C(c3ccccc3)C(=O)OC2)cc1 [ROFECOXIB]	Not Active	Not Active	Not Active	Not Active	Not Active		Not Active	Not Active							
CNCCCC12CCC(c3ccccc31)c1ccccc12 [MAPROTILINE]			Not Active			Not Active									
LEAD(IV) ACETATE	Not Active	Not Active		Not Active	Not Active	Not Active	Not Active	Not Active			Not Active	Not Active	Not Active		
O=C(c1ccccc1)c1ccc2n1CCC2C(=O)O (stereo not given) [KETOROLAC]	Not Active	Not Active	Not Active	Not Active	Not Active		Not Active	Not Active							
CC[C@H](C)[C@@H](CO[C@@H](Cc1ccccc1)C(=O)N[C@@H](CCS(C)(=O)=O)C(=O)OC(C)C)NC[C@@H](N)CS	Not Active		Not Active	Not Active	Not Active	Not Active								28	9.63
CCC(C)(C)C(=O)O[C@H]1C[C@@H](C)C=C2C=C[C@H](C)[C@H](CC[C@@H]3C[C@@H](O)CC(=O)O3)[C@H]21 [SIMVASTATIN]	Not Active	Not Active	Not Active			Not Active									
Cc1ccc(S(=O)(=O)NC(=O)NN2CCCCCC2)cc1 [TOLAZAMIDE]	Not Active	Not Active	Not Active			Not Active									
CC(Cl)(Cl)Cl [TRICHLOROETHANE]	Not Active	Not Active		Not Active	Not Active		Not Active	Not Active							
CCN1CCCC1CNC(=O)c1cc(S(N)(=O)=O)ccc1OC (stereo not given) [SULPIRIDE]	Not Active		Not Active	Not Active	Not Active		Not Active	Not Active							
CCOC(=O)C1=C(C)NC(C)=C(C(=O)OCC)C1c1ccccc1/C=C/C(=O)OC(C)(C)C [LACIDIPINE]	Not Active		Not Active	Not Active	Not Active	Not Active								6170	2100
C=CCc1ccc2c(c1)OCO2 [SAFROLE]	Not Active	Not Active	Not Active	Not Active	Not Active		Not Active	Not Active							
O=C(OC[C@H]1O[C@@H](OC(=O)c2cc(O)c(O)c(OC(=O)c3cc(O)c(O)c(O)c3)c2)[C@H](OC(=O)c2cc(O)c(O)c(OC(=O)c3cc(O)c(O)c(O)c3)c2)[C@@H](OC(=O)c2cc(O)c(O)c(OC(=O)c3cc(O)c(O)c(O)c3)c2)[C@@H]1OC(=O)c1cc(O)c(O)c(OC(=O)c2cc(O)c(O)c(O)c2)c1)c1cc(O)c(O)c(OC(=O)c2cc(O)c(O)c(O)c2)c1 [TANNIC ACID]	Not Active	Not Active	Not Active	Not Active	Not Active		Not Active	Not Active							
CO[C@@]12[C@H](COC(N)=O)C3=C(C(=O)C(C)=C(N)C3=O)N1C[C@@H]1N[C@@H]12 [MITOMYCIN]	Not Active	Not Active	Not Active	Not Active	Not Active		Not Active	Not Active							
CN1C[C@H](CNC(=O)OCc2ccccc2)C[C@@H]2c3cccc4c3c(cn4C)C[C@H]21 [METERGOLINE]			Not Active	Not Active	Not Active	Not Active	Not Active	Not Active							
O=C1CC[C@@]2(O)[C@H]3Cc4ccc(O)c5c4[C@@]2(CCN3CC2CC2)[C@H]1O5 [NALTREXONE]	Not Active	Not Active		Not Active	Not Active		Not Active	Not Active							
CN(C)CCC=C1c2ccccc2COc2ccccc21 [DOXEPIN]			Not Active	Not Active	Not Active		Not Active	Not Active							
Cc1cn([C@H]2C=C[C@@H](CO)O2)c(=O)[nH]c1=O [STAVUDINE]	Not Active	Not Active	Not Active	Not Active	Not Active		Not Active	Not Active							
C1CCN2C[C@@H]3C[C@@H](CN4CCCC[C@@H]34)[C@H]2C1 [SPARTEINE]	Not Active	Not Active													
